# Data taken from patent publication US20240059671A1, “TYROSINE KINASE 2 (TYK2) DEGRADATION COMPOUNDS AND METHODS OF USE” (CULLGEN (SHANGHAI), INC., priority 2020, published 2024).
# Molecular target: TYK2 (Homo sapiens, UniProt P29597)
# Assay: TYK2 protein degradation in MOLT-4 cells by immunoblotting
# Format: cell-based
# Design: endogenous in cells; host or cells: MOLT-4
# Conditions: MOLT-4 cells, 0.5 μM, 24 hours
# Protocol: MOLT-4 cells were treated with compounds at 0.5 and 5 μM concentrations for 24 hours.
# MOLT-4 cells were treated with CPD-038, CPD-039, and CPD-040 at 0.04, 0.2, 1, and 5 μM concentrations for 24 hours.
# MOLT-4 or NOMO-1 cells were cultured at 37° C. with 5% CO2 in RPMI 1640 Medium supplemented with 10% fetal bovine serum. Cells were authenticated using the short tandem repeat (STR) assays. Mycoplasma test results were negative.
# Cultured cells were washed with cold PBS once and lysed in cold RIPA buffer supplemented with protease inhibitors and phosphatase inhibitors (Beyotime Biotechnology). The solutions were then incubated at 4° C. for 30 minutes with gentle agitation to fully lyse cells. Cell lysates were centrifuged at 13,000 rpm for 10 minutes at 4° C. and pellets were discarded. Total protein concentrations in the lysates were determined by BCA assays (Beyotime Biotechnology). Cell lysates were mixed with Laemmli loading buffer to 1× and heated at 99° C. for 5 min. Proteins were resolved on SDS-PAGE and visualized by chemiluminescence. Images were taken by a ChemiDoc MP Imaging system (Bio-Rad). Protein bands were quantitated using the accompanied software provided by Bio-Rad.
# The percentage of TYK2 protein degradation of each compound at 0.5 and 5 μM determined in MOLT-4 cells as described in Methods.
# Chain of TYK2 (P29597 whole entry): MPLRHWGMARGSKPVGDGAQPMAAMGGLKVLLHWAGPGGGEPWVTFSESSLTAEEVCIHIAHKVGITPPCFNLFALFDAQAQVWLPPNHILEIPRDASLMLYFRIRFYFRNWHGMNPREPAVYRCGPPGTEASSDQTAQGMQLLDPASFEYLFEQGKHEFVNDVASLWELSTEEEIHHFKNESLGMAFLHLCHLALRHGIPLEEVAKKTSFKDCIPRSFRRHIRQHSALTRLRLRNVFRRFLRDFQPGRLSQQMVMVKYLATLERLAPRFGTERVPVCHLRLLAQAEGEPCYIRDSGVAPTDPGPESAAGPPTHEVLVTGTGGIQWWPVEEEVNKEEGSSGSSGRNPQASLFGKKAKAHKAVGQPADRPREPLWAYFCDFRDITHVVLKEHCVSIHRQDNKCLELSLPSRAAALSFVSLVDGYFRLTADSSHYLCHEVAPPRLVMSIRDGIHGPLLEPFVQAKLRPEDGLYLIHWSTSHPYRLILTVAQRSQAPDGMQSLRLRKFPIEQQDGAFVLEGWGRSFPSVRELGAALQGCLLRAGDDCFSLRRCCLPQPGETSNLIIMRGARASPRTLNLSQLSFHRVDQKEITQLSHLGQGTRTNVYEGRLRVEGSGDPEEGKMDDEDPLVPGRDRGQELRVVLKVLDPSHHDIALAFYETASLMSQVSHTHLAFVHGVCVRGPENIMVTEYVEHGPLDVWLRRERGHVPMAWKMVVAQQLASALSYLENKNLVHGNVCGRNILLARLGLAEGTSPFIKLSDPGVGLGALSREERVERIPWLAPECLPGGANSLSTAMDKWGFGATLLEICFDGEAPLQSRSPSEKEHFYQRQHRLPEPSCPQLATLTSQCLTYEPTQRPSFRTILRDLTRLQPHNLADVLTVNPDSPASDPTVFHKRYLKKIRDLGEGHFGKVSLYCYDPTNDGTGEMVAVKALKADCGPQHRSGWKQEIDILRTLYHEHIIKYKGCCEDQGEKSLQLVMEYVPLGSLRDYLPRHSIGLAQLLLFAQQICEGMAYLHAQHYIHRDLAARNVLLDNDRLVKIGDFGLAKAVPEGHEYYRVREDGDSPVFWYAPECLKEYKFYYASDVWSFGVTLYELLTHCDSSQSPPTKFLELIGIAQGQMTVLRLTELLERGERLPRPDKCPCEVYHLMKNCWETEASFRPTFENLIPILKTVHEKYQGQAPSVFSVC
row,Structure (SMILES),TYK2 Degradation (0.5 μM)
1,"CNC(=O)c1nnc(NC(=O)C2CC2)cc1Nc1cccc(-c2ncn(CCNC(=O)CNc3cccc4c3C(=O)N(C3CCC(=O)NC3=O)C4=O)n2)c1OC (stereo not drawn) [CPD-001, 6-(Cyclopropanecarboxamido)-4-((3-(1-(2-(2-((2-(2,6-dioxopiperidin-3-yl)-1,3-dioxoisoindolin-4-yl)amino)acetamido)ethyl)-1H-1,2,4-triazol-3-yl)-2-methoxyphenyl)amino)-N-methylpyridazine-3-carboxamide]",≤20%
2,"CNC(=O)c1nnc(NC(=O)C2CC2)cc1Nc1cccc(-c2ncn(CCNC(=O)CCNc3cccc4c3C(=O)N(C3CCC(=O)NC3=O)C4=O)n2)c1OC (stereo not drawn) [CPD-002, 6-(Cyclopropanecarboxamido)-4-((3-(1-(2-(3-((2-(2,6-dioxopiperidin-3-yl)-1,3-dioxoisoindolin-4-yl)amino)propanamido)ethyl)-1H-1,2,4-triazol-3-yl)-2-methoxyphenyl)amino)-N-methylpyridazine-3-carboxamide]",≤20%
3,"CNC(=O)c1nnc(NC(=O)C2CC2)cc1Nc1cccc(-c2ncn(CCNC(=O)CCCNc3cccc4c3C(=O)N(C3CCC(=O)NC3=O)C4=O)n2)c1OC (stereo not drawn) [CPD-003, 6-(Cyclopropanecarboxamido)-4-((3-(1-(2-(4-((2-(2,6-dioxopiperidin-3-yl)-1,3-dioxoisoindolin-4-yl)amino)butanamido)ethyl)-1H-1,2,4-triazol-3-yl)-2-methoxyphenyl)amino)-N-methylpyridazine-3-carboxamide]",≤20%
4,"CNC(=O)c1nnc(NC(=O)C2CC2)cc1Nc1cccc(-c2ncn(CCNC(=O)CCCCNc3cccc4c3C(=O)N(C3CCC(=O)NC3=O)C4=O)n2)c1OC (stereo not drawn) [CPD-004, 6-(Cyclopropanecarboxamido)-4-((3-(1-(2-(5-((2-(2,6-dioxopiperidin-3-yl)-1,3-dioxoisoindolin-4-yl)amino)pentanamido)ethyl)-1H-1,2,4-triazol-3-yl)-2-methoxyphenyl)amino)-N-methylpyridazine-3-carboxamide]",≤20%
5,"CNC(=O)c1nnc(NC(=O)C2CC2)cc1Nc1cccc(-c2ncn(CCNC(=O)CCCCCNc3cccc4c3C(=O)N(C3CCC(=O)NC3=O)C4=O)n2)c1OC (stereo not drawn) [CPD-005, 6-(Cyclopropanecarboxamido)-4-((3-(1-(2-(6-((2-(2,6-dioxopiperidin-3-yl)-1,3-dioxoisoindolin-4-yl)amino)hexanamido)ethyl)-1H-1,2,4-triazol-3-yl)-2-methoxyphenyl)amino)-N-methylpyridazine-3-carboxamide]",≤20%
6,"CNC(=O)c1nnc(NC(=O)C2CC2)cc1Nc1cccc(-c2ncn(CCNC(=O)CCCCCCNc3cccc4c3C(=O)N(C3CCC(=O)NC3=O)C4=O)n2)c1OC (stereo not drawn) [CPD-006, 6-(Cyclopropanecarboxamido)-4-((3-(1-(2-(7-((2-(2,6-dioxopiperidin-3-yl)-1,3-dioxoisoindolin-4-yl)amino)heptanamido)ethyl)-1H-1,2,4-triazol-3-yl)-2-methoxyphenyl)amino)-N-methylpyridazine-3-carboxamide]",≤20%
7,"CNC(=O)c1nnc(NC(=O)C2CC2)cc1Nc1cccc(-c2ncn(CCNC(=O)CCCCCCCNc3cccc4c3C(=O)N(C3CCC(=O)NC3=O)C4=O)n2)c1OC (stereo not drawn) [CPD-007, 6-(Cyclopropanecarboxamido)-4-((3-(1-(2-(8-((2-(2,6-dioxopiperidin-3-yl)-1,3-dioxoisoindolin-4-yl)amino)octanamido)ethyl)-1H-1,2,4-triazol-3-yl)-2-methoxyphenyl)amino)-N-methylpyridazine-3-carboxamide]",≤20%
8,"CNC(=O)c1nnc(NC(=O)C2CC2)cc1Nc1cccc(-c2ncn(CCNC(=O)CCOCCNc3cccc4c3C(=O)N(C3CCC(=O)NC3=O)C4=O)n2)c1OC (stereo not drawn) [CPD-008, 6-(Cyclopropanecarboxamido)-4-((3-(1-(2-(3-(2-((2-(2,6-dioxopiperidin-3-yl)-1,3-dioxoisoindolin-4-yl)amino)ethoxy)propanamido)ethyl)-1H-1,2,4-triazol-3-yl)-2-methoxyphenyl)amino)-N-methylpyridazine-3-carboxamide]",≤20%
9,"CNC(=O)c1nnc(NC(=O)C2CC2)cc1Nc1cccc(-c2ncn(CCNC(=O)CCOCCOCCNc3cccc4c3C(=O)N(C3CCC(=O)NC3=O)C4=O)n2)c1OC (stereo not drawn) [CPD-009, 6-(Cyclopropanecarboxamido)-4-((3-(1-(2-(3-(2-(2-((2-(2,6-dioxopiperidin-3-yl)-1,3-dioxoisoindolin-4-yl)amino)ethoxy)ethoxy)propanamido)ethyl)-1H-1,2,4-triazol-3-yl)-2-methoxyphenyl)amino)-N-methylpyridazine-3-carboxamide]",≤20%
10,"CNC(=O)c1nnc(NC(=O)C2CC2)cc1Nc1cccc(-c2ncn(CCNC(=O)CCOCCOCCOCCNc3cccc4c3C(=O)N(C3CCC(=O)NC3=O)C4=O)n2)c1OC (stereo not drawn) [CPD-010, 6-(Cyclopropanecarboxamido)-4-((3-(1-(1-((2-(2,6-dioxopiperidin-3-yl)-1,3-dioxoisoindolin-4-yl)amino)-12-oxo-3,6,9-trioxa-13-azapentadecan-15-yl)-1H-1,2,4-triazol-3-yl)-2-methoxyphenyl)amino)-N-methylpyridazine-3-carboxamide]",≤20%
11,"CNC(=O)c1nnc(NC(=O)C2CC2)cc1Nc1cccc(-c2ncn(CCNC(=O)CCOCCOCCOCCOCCNc3cccc4c3C(=O)N(C3CCC(=O)NC3=O)C4=O)n2)c1OC (stereo not drawn) [CPD-011, 6-(Cyclopropanecarboxamido)-4-((3-(1-(1-((2-(2,6-dioxopiperidin-3-yl)-1,3-dioxoisoindolin-4-yl)amino)-15-oxo-3,6,9,12-tetraoxa-16-azaoctadecan-18-yl)-1H-1,2,4-triazol-3-yl)-2-methoxyphenyl)amino)-N-methylpyridazine-3-carboxamide]",≤20%
12,"CNC(=O)c1nnc(NC(=O)C2CC2)cc1Nc1cccc(-c2ncn(CCNC(=O)CCOCCOCCOCCOCCOCCNc3cccc4c3C(=O)N(C3CCC(=O)NC3=O)C4=O)n2)c1OC (stereo not drawn) [CPD-012, 6-(Cyclopropanecarboxamido)-4-((3-(1-(1-((2-(2,6-dioxopiperidin-3-yl)-1,3-dioxoisoindolin-4-yl)amino)-18-oxo-3,6,9,12,15-pentaoxa-19-azahenicosan-2l-yl)-1H-1,2,4-triazol-3-yl)-2-methoxyphenyl)amino)-N-methylpyridazine-3-carboxamide]",≤20%

# Continued, values first:
row,TYK2 Degradation (0.5 μM),Structure (SMILES)
1,≤20%,"CNC(=O)c1nnc(NC(=O)C2CC2)cc1Nc1cccc(-c2ncn(CCNC(=O)CNc3ccc4c(c3)C(=O)N(C3CCC(=O)NC3=O)C4=O)n2)c1OC (stereo not drawn) [CPD-013, 6-(Cyclopropanecarboxamido)-4-((3-(1-(2-(2-((2-(2,6-dioxopiperidin-3-yl)-1,3-dioxoisoindolin-5-yl)amino)acetamido)ethyl)-1H-1,2,4-triazol-3-yl)-2-methoxyphenyl)amino)-N-methylpyridazine-3-carboxamide]"
2,≤20%,"CNC(=O)c1nnc(NC(=O)C2CC2)cc1Nc1cccc(-c2ncn(CCNC(=O)CCNc3ccc4c(c3)C(=O)N(C3CCC(=O)NC3=O)C4=O)n2)c1OC (stereo not drawn) [CPD-014, 6-(Cyclopropanecarboxamido)-4-((3-(1-(2-(3-((2-(2,6-dioxopiperidin-3-yl)-1,3-dioxoisoindolin-5-yl)amino)propanamido)ethyl)-1H-1,2,4-triazol-3-yl)-2-methoxyphenyl)amino)-N-methylpyridazine-3-carboxamide]"
3,≤20%,"CNC(=O)c1nnc(NC(=O)C2CC2)cc1Nc1cccc(-c2ncn(CCNC(=O)CCCNc3ccc4c(c3)C(=O)N(C3CCC(=O)NC3=O)C4=O)n2)c1OC (stereo not drawn) [CPD-015, 6-(Cyclopropanecarboxamido)-4-((3-(1-(2-(4-((2-(2,6-dioxopiperidin-3-yl)-1,3-dioxoisoindolin-5-yl)amino)butanamido)ethyl)-1H-1,2,4-triazol-3-yl)-2-methoxyphenyl)amino)-N-methylpyridazine-3-carboxamide]"
4,≤20%,"CNC(=O)c1nnc(NC(=O)C2CC2)cc1Nc1cccc(-c2ncn(CCNC(=O)CCCCNc3ccc4c(c3)C(=O)N(C3CCC(=O)NC3=O)C4=O)n2)c1OC (stereo not drawn) [CPD-016, 6-(Cyclopropanecarboxamido)-4-((3-(1-(2-(5-((2-(2,6-dioxopiperidin-3-yl)-1,3-dioxoisoindolin-5-yl)amino)pentanamido)ethyl)-1H-1,2,4-triazol-3-yl)-2-methoxyphenyl)amino)-N-methylpyridazine-3-carboxamide]"
5,≤20%,"CNC(=O)c1nnc(NC(=O)C2CC2)cc1Nc1cccc(-c2ncn(CCNC(=O)CCCCCCNc3ccc4c(c3)C(=O)N(C3CCC(=O)NC3=O)C4=O)n2)c1OC (stereo not drawn) [CPD-017, 6-(Cyclopropanecarboxamido)-4-((3-(1-(2-(7-((2-(2,6-dioxopiperidin-3-yl)-1,3-dioxoisoindolin-5-yl)amino)heptanamido)ethyl)-1H-1,2,4-triazol-3-yl)-2-methoxyphenyl)amino)-N-methylpyridazine-3-carboxamide]"
6,≤20%,"CNC(=O)c1nnc(NC(=O)C2CC2)cc1Nc1cccc(-c2ncn(CCNC(=O)CCOCCNc3ccc4c(c3)C(=O)N(C3CCC(=O)NC3=O)C4=O)n2)c1OC (stereo not drawn) [CPD-018, 6-(Cyclopropanecarboxamido)-4-((3-(1-(2-(3-(2-((2-(2,6-dioxopiperidin-3-yl)-1,3-dioxoisoindolin-5-yl)amino)ethoxy)propanamido)ethyl)-1H-1,2,4-triazol-3-yl)-2-methoxyphenyl)amino)-N-methylpyridazine-3-carboxamide]"
